# Results from patent US9006241B2, “Pyrimidine derivatives” (Noviga Research AB, priority 2011, dated 2015).
# pEC50: −log10 of the molar value.
# System: CCRF-CEM cancer cells - leukemia
# Experiment: Fluorometric Microculture Cytotoxicity Assay (FMCA), CCRF-CEM
# Assay type: cell-based
# Details: Homo sapiens, 72 h incubation
# Source text: The Fluorometric Microculture Cytotoxicity Assay, FMCA (Larsson, R., et al.; Anticancer Res, 1989, 9, 1111-1119), is a three day non-clonogenic microplate-based cell viability assay used for measurement of the cytotoxic and/or cytostatic effect of compounds in vitro (Lindhagen, E. et al.; Nat. Protoc., 2008, 3, 1364-1369). FMCA represents a valuable method to measure cytotoxicity in a number of cell types, both cell lines and primary cells from patients (Larsson, R., et al.; Int. J. Cancer, 1992, 50, 177-185; Fridborg, H., et al.; Eur. J. Cancer, 1999. 35, 424-432; Dhar, S., et al.; Br. J. Cancer, 1996, 74, 888-896).
# FMCA is based on the principle that fluorescein diacetate (FDA) is converted to the fluorescent probe fluorescein by esterases in the plasma membranes of living cells. For experiments, 96 or 384-well microplates are prepared with compounds and stored at −70° C. until use. Cells are then seeded into the drug-prepared plates and placed in an incubator for 72 h. On the last day of incubation, the plates are washed and a buffer containing FDA is added and incubated with the cells for 45 minutes. Finally the fluorescence per well is measured in a fluorometer and a Survival Index % (SI) for each compound-treated well is calculated with the equation: Compound-treated cells minus blank divided by control cells minus blank. A high SI-value indicates a large percentage of living cells and vice versa.
# In subsequent experiments, compounds were tested, along with a number of approved cancer drugs (dasatinib, pazopanib, sorafenib, and sunitinib) as described above. Initially, the acute lymphoblastic leukemia cell line CCRF-CEM was used throughout. In the assay plates, medium was added to six empty wells (blank wells) and wells were filled with PBS and cell suspension and served as control wells. SI-values were then calculated for each compound-treated well as described above. All experiments were conducted twice and a new batch of plates was prepared for each experiment.
# For dose-response experiments, 384-well plates were prepared as follows:
# Compounds of the invention as well comparative kinase inhibitors sorafenib sunitinib, dasatinib, pazopanib and a reference compound disclosed in WO 2009/071535 (compound #107) were diluted with PBS to a concentration ten-times higher than the desired starting concentration. Then, a Biomek 2000 liquid handling system was employed to serially dilute the compounds in a deep-well 384-well plate. From this plate, assay plates containing 5 μl compound per well were prepared with the Biomek 2000. Certain compounds precipitated when diluted with PBS, and these compounds were therefore prepared in a 96-well plate manually as described above using culture medium RPMI 1640 instead of PBS.
# The compounds were also tested at five concentrations, with five times serial dilution on the following cell types: CCRF-CEM, hTERT-RPE1 (normal retinal epithelial cells), hRPTEpiC (normal renal cells), and peripheral blood mononuclear cells (PBMC). Each experiment was performed three times, except for PBMC and hRPTEpiC, which were performed twice. SI-values were calculated, graphs were plotted using GraphPadPrism 5.0 (GraphPad Software Inc. La Jolla, Calif.) and IC50-values for each cell type and compound were determined from the curves.
row,SMILES,pEC50
1,"Cc1cc(Nc2ccc3[nH]c(C)cc3c2)nc(NCCc2c[nH]c3ccccc23)n1 [Example 26, N^2-[2-(1H-indol-3-yl)ethyl]-6-methyl-N^4-(2-methyl-1H-indol-5-yl)pyrimidine-2,4-diamine]",6.19
2,"CCOc1ccc2[nH]cc(CCNc3nccc(Nc4ccc5cc(C)[nH]c5c4)n3)c2c1 [Example 74, N^2-[2-(5-ethoxy-1H-indol-3-yl)ethyl]-N^4-(2-methyl-1H-indol-6-yl)pyrimidine-2,4-diamine]",> 7.00
3,"COc1ccc2[nH]cc(CCNc3nccc(Nc4cccc5[nH]c(C)cc45)n3)c2c1 [Example 77, N^2-[2-(5-methoxy-1H-indol-3-yl)ethyl]-N^4-(2-methyl-1H-indol-4-yl)pyrimidine-2,4-diamine]",> 7.00
4,"COc1ccc2[nH]cc(CCNc3nccc(Nc4cccc5c4cc(C)n5C)n3)c2c1 [Example 81, N^4-(1,2-dimethylindol-4-yl)-N^2-[2-(5-methoxy-1H-indol-3-yl)ethyl]pyrimidine-2,4-diamine]",> 7.00
5,"CCOc1ccc2[nH]cc(CCNc3nccc(Nc4cccc5[nH]c(C)nc45)n3)c2c1 [Example 83, N^2-[2-(5-ethoxy-1H-indol-3-yl)ethyl]-N^4-(2-methyl-1H-benzimidazol-4-yl)pyrimidine-2,4-diamine]",> 6.00
6,"COc1ccc2[nH]cc(CCNc3nccc(Nc4cccc5c4ccn5C)n3)c2c1 [Example 54, N^2-[2-(5-methoxy-1H-indol-3-yl)ethyl]-N^4-(1-methyl-1H-indol-4-yl)pyrimidine-2,4-diamine]",8.55
7,"COc1ccc2[nH]cc(CCNc3nccc(N(C)c4ccc5[nH]c(C)cc5c4)n3)c2c1 [Example 61, N^2-[2-(5-methoxy-1H-indol-3-yl)ethyl]-N^4-methyl-N^4-(2-methyl-1H-indol-5-yl)pyrimidine-2,4-diamine]",5.00 to 6.00
8,"COc1ccc2[nH]cc(CCNc3nccc(Nc4ccc5[nH]c(C(=O)OCCO)cc5c4)n3)c2c1 [Example 17, 2-hydroxyethyl 5-{2-[2-(5-methoxy-1H-indol-3-yl)ethylamino]pyrimidin-4-ylamino}-1H-indole-2-carboxylate]",5.85
9,"COc1ccc2[nH]cc(CCNc3ncc(C)c(Nc4ccc5[nH]c(C)cc5c4)n3)c2c1 [Example 29, N^2-[2-(5-methoxy-1H-indol-3-yl)ethyl]-5-methyl-N^4-(2-methyl-1H-indol-5-yl)pyrimidine-2,4-diamine]",7.24
10,"COc1ccc2[nH]cc(CCNc3nccc(Nc4ccc5c(c4)nc(C)n5C)n3)c2c1 [Example 53, N^4-(1,2-dimethyl-1H-benzo[d]imidazol-5-yl)-N^2-[2-(5-methoxy-1H-indol-3-yl)ethyl]pyrimidine-2,4-diamine]",7.48
11,"CCOc1ccc2[nH]cc(CCNc3nccc(Nc4cccc5[nH]c(C)cc45)n3)c2c1 [Example 78, N^2-[2-(5-ethoxy-1H-indol-3-yl)ethyl]-N^4-(2-methyl-1H-indol-4-yl)pyrimidine-2,4-diamine]",> 7.00
12,"COc1ccc2[nH]cc(CCNc3nccc(Nc4cccc5[nH]c(C)nc45)n3)c2c1 [Example 82, N^2-[2-(5-methoxy-1H-indol-3-yl)ethyl]-N^4-(2-methyl-1H-benzimidazol-4-yl)pyrimidine-2,4-diamine]",> 6.00
13,"COc1ccc2[nH]cc(CCNc3nccc(Nc4ccc5cc[nH]c5c4)n3)c2c1 [Example 20, N^4-(1H-indol-6-yl)-N^2-[2-(5-methoxy-1H-indol-3-yl)ethyl]pyrimidine-2,4-diamine]",6.85
14,"Cc1cc2cc(Nc3ccnc(NCCc4c[nH]c5ccc(OCCN6CCOCC6)cc45)n3)ccc2[nH]1 [Example 6, N^4-(2-methyl-1H-indol-5-yl)-N^2-{2-[5-(2-morpholinoethoxy)-1H-indol-3-yl]ethyl}pyrimidine-2,4-diamine]",5.54
15,"COc1ccc2[nH]cc(CCNc3nc(Nc4ccc5[nH]c(C)cc5c4)cc(N4CCN(C)CC4)n3)c2c1 [Example 30, N^2-[2-(5-methoxy-1H-indol-3-yl)ethyl]-N^4-(2-methyl-1H-indol-5-yl)-6-(4-methylpiperazin-1-yl)pyrimidine-2,4-diamine]",5.52
16,"CCCOc1ccc2[nH]cc(CCNc3nccc(Nc4ccc5[nH]c(C)cc5c4)n3)c2c1 [Example 48, N^4-(2-methyl-1H-indol-5-yl)-N^2-[2-(5-propoxy-1H-indol-3-yl)ethyl]pyrimidine-2,4-diamine]",5.89
17,"Cc1cc2cc(Nc3ccnc(NCCc4c[nH]c5ccc(OC(F)(F)F)cc45)n3)ccc2[nH]1 [Example 7, N^4-(2-methyl-1H-indol-5-yl)-N^2-{2-[5-(trifluoromethoxy)-1H-indol-3-yl]ethyl}pyrimidine-2,4-diamine]",6.85
18,"COc1ccc2[nH]cc(CCNc3nc(Nc4cccc5c4ccn5C)cc(N4CCN(C)CC4)n3)c2c1 [Example 89, N^2-[2-(5-methoxy-1H-indol-3-yl)ethyl]-N^4-(1-methylindol-4-yl)-6-(4-methylpiperazin-1-yl)pyrimidine-2,4-diamine]",> 6.00
19,"c1ccc2c(CCNc3ccnc(Nc4cccc5[nH]ccc45)n3)c[nH]c2c1 [Example 25, N^4-[2-(1H-indol-3-yl)ethyl]-N^2-(1H-indol-4-yl)pyrimidine-2,4-diamine]",5.00 to 6.00
20,"CCOc1ccc2[nH]cc(CCNc3nc(Nc4cccc5c4ccn5C)cc(C(N)=O)n3)c2c1 [Example 88, 2-[2-(5-ethoxy-1H-indol-3-yl)ethylamino]-6-[(1-methylindol-4-yl)amino]pyrimidine-4-carboxamide]",> 7.00
21,"COc1ccc2[nH]c(C)c(CCNc3nc(C)cc(Nc4ccc5[nH]c(C)cc5c4)n3)c2c1 [Example 56, N^2-[2-(5-methoxy-2-methyl-1H-indol-3-yl)ethyl]-6-methyl-N^4-(2-methyl-1H-indol-5-yl)pyrimidine-2,4-diamine]",6.89
22,"COc1cc2[nH]cc(CCNc3nccc(Nc4ccc5[nH]c(C)cc5c4)n3)c2cc1OC [Example 50, N^2-[2-(5,6-dimethoxy-1H-indol-3-yl)ethyl]-N^4-(2-methyl-1H-indol-5-yl)pyrimidine-2,4-diamine]",6.74
23,"CCOc1ccc2[nH]cc(CCNc3nccc(Nc4cccc5c4ccn5C)n3)c2c1 [Example 80, N^2-[2-(5-ethoxy-1H-indol-3-yl)ethyl]-N^4-(1-methylindol-4-yl)pyrimidine-2,4-diamine]",> 7.00
24,"COc1ccc2c(CCNc3nccc(Nc4ccc5[nH]c(C)cc5c4)n3)c[nH]c2c1 [Example 11, N^2-[2-(6-methoxy-1H-indol-3-yl)ethyl]-N^4-(2-methyl-1H-indol-5-yl)pyrimidine-2,4-diamine]",6.82
25,"COc1ccc2[nH]cc(CCNc3nc(Nc4ccc5c(c4)nc(C)n5C)cc(C(N)=O)n3)c2c1 [Example 86, 6-[(1,2-dimethylbenzimidazol-5-yl)amino]-2-[2-(5-methoxy-1H-indol-3-yl)ethylamino]pyrimidine-4-carboxamide]",> 6.00
26,"COc1ccc2[nH]cc(CCNc3nccc(Nc4ccc5[nH]cnc5c4)n3)c2c1 [Example 18, N^4-(1H-benzo[d]imidazol-5-yl)-N^2-[2-(5-methoxy-1H-indol-3-yl)ethyl]pyrimidine-2,4-diamine]",6.38
27,"c1ccc2c(CCNc3ccnc(Nc4ccc5cc[nH]c5c4)n3)c[nH]c2c1 [Example 24, N^4-[2-(1H-indol-3-yl)ethyl]-N^2-(1H-indol-6-yl)pyrimidine-2,4-diamine]",5.00 to 6.00
28,"Cc1cc2cc(Nc3ccnc(NCCc4c[nH]c5ccc(F)cc45)n3)ccc2[nH]1 [Example 10, N^2-[2-(5-fluoro-1H-indol-3-yl)ethyl]-N^4-(2-methyl-1H-indol-5-yl)pyrimidine-2,4-diamine]",6.55
29,"Cn1ccc2c(Nc3ccnc(NCCc4c[nH]c5ccc(O)cc45)n3)cccc21 [Example 79, 3-[2-({4-[(1-methylindol-4-yl)amino]pyrimidin-2-yl}amino)ethyl]-1H-indol-5-ol]",> 6.00
30,"Cc1cc2cc(Nc3ccnc(NCCc4c[nH]c5ccccc45)n3)ccc2[nH]1 [Example 3, N^2-[2-(1H-indol-3-yl)ethyl]-N^4-(2-methyl-1H-indol-5-yl)pyrimidine-2,4-diamine]",6.54
